Test results: PubChem BioAssay AID1918957 (Molecular Pharmacology Branch, DTP, NCI, 2023)
“And” between values parts separate entries of the source, which are not always exact repeats. Identical values can stand only once. The source made the active and inactive calls. How the source made its calls: active means viability on the fitted dose curve at most 10% of control; inactive means the rest.

System: NCI-H1876 complex spheroid viability
Experiment: Anticancer human tumor NCI-H1876 cell line growth inhibition [LSD1];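 on IC50: spheroids exposed to compounds for one week before readout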;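 on viability, T/C: spheroids exposed to compounds for one week before readout; 100% = DMSO vehicle-treated spheroids so lower means fewer viable cells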
Details: for viability, T/C: stronger effect = lower value
Procedure, shortened: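 Complex spheroids of tumor cells with HUVEC and human MSCs, exposed to iadademstat combined with other agents. Each agent tested in half-log steps from near clinical Cmax (else 10 microM top), DMSO ≤0.25%.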

[1] = curve of first compound, second compound 0.1 µM
[2] = curve of first compound, second compound 0.316 µM
[3] = curve of first compound, second compound 1 µM
[4] = curve of first compound, second compound 3.16 µM
[5] = curve of first compound, second compound 10 µM
[6] = second compound 0.1 µM, first compound 0.00949 µM
[7] = second compound 0.1 µM, first compound 0.03 µM
[8] = second compound 0.1 µM, first compound 0.0949 µM
[9] = second compound 0.1 µM, first compound 0.3 µM
[10] = second compound 0.316 µM, first compound 0.00949 µM
[11] = second compound 0.316 µM, first compound 0.03 µM
[12] = second compound 0.316 µM, first compound 0.0949 µM
[13] = second compound 0.316 µM, first compound 0.3 µM
[14] = second compound 1 µM, first compound 0.00949 µM
[15] = second compound 1 µM, first compound 0.03 µM
[16] = second compound 1 µM, first compound 0.0949 µM
[17] = second compound 1 µM, first compound 0.3 µM
[18] = second compound 3.16 µM, first compound 0.00949 µM
[19] = second compound 3.16 µM, first compound 0.03 µM
[20] = second compound 3.16 µM, first compound 0.0949 µM
[21] = second compound 3.16 µM, first compound 0.3 µM
[22] = second compound 10 µM, first compound 0.00949 µM
[23] = second compound 10 µM, first compound 0.03 µM
[24] = second compound 10 µM, first compound 0.0949 µM
[25] = second compound 10 µM, first compound 0.3 µM
[26] = second compound 0.1 µM, first compound 0.000316 µM
[27] = second compound 0.1 µM, first compound 0.001 µM
[28] = second compound 0.1 µM, first compound 0.00316 µM
[29] = second compound 0.1 µM, first compound 0.01 µM
[30] = second compound 0.1 µM, first compound 0.0316 µM
[31] = second compound 0.1 µM, first compound 0.1 µM
[32] = second compound 0.316 µM, first compound 0.000316 µM
[33] = second compound 0.316 µM, first compound 0.001 µM
[34] = second compound 0.316 µM, first compound 0.00316 µM
[35] = second compound 0.316 µM, first compound 0.01 µM
[36] = second compound 0.316 µM, first compound 0.0316 µM
[37] = second compound 0.316 µM, first compound 0.1 µM
[38] = second compound 1 µM, first compound 0.000316 µM
[39] = second compound 1 µM, first compound 0.001 µM
[40] = second compound 1 µM, first compound 0.00316 µM
[41] = second compound 1 µM, first compound 0.01 µM
[42] = second compound 1 µM, first compound 0.0316 µM
[43] = second compound 1 µM, first compound 0.1 µM
[44] = second compound 3.16 µM, first compound 0.000316 µM
[45] = second compound 3.16 µM, first compound 0.001 µM
[46] = second compound 3.16 µM, first compound 0.00316 µM
[47] = second compound 3.16 µM, first compound 0.01 µM
[48] = second compound 3.16 µM, first compound 0.0316 µM
[49] = second compound 3.16 µM, first compound 0.1 µM
[50] = second compound 10 µM, first compound 0.000316 µM
[51] = second compound 10 µM, first compound 0.001 µM
[52] = second compound 10 µM, first compound 0.00316 µM
[53] = second compound 10 µM, first compound 0.01 µM
[54] = second compound 10 µM, first compound 0.0316 µM
[55] = second compound 10 µM, first compound 0.1 µM

Nc1ncn(C2CC(O)C(CO)S2)c(=O)n1 (centres undefined) + NC1CCC(NC2CC2c2ccccc2)CC1
IC50 [1]: > 300 nM | IC50 [2]: > 300 nM | IC50 [3]: > 300 nM | IC50 [4]: > 300 nM | IC50 [5]: > 300 nM | viability, T/C (second compound 0.1 µM, first compound 0.000949 µM): 106% | viability, T/C (second compound 0.1 µM, first compound 0.003 µM): 100% | viability, T/C [6]: 92.6% | viability, T/C [7]: 87.9% | viability, T/C [8]: 84.5% | viability, T/C [9]: 70.7% | viability, T/C (second compound 0.316 µM, first compound 0.000949 µM): 105% | viability, T/C (second compound 0.316 µM, first compound 0.003 µM): 113% | viability, T/C [10]: 98.5% | viability, T/C [11]: 99.2% | viability, T/C [12]: 85.7% | viability, T/C [13]: 67.8% | viability, T/C (second compound 1 µM, first compound 0.000949 µM): 109% | viability, T/C (second compound 1 µM, first compound 0.003 µM): 117% | viability, T/C [14]: 99.2% | viability, T/C [15]: 93.4% | viability, T/C [16]: 85.2% | viability, T/C [17]: 64.1% | viability, T/C (second compound 3.16 µM, first compound 0.000949 µM): 119% | viability, T/C (second compound 3.16 µM, first compound 0.003 µM): 113% | viability, T/C [18]: 105% | viability, T/C [19]: 91.5% | viability, T/C [20]: 81.3% | viability, T/C [21]: 63.2% | viability, T/C (second compound 10 µM, first compound 0.000949 µM): 118% | viability, T/C (second compound 10 µM, first compound 0.003 µM): 108% | viability, T/C [22]: 98.8% | viability, T/C [23]: 96.9% | viability, T/C [24]: 81.1% | viability, T/C [25]: 57%

COc1ccc([C@@H](O)c2cc(-c3ncnc4cc(N5CCOCC5)ccc34)c(F)cc2Cl)nn1
viability, T/C (compound 0.0316 µM): 93.6% and 98% | viability, T/C (compound 0.1 µM): 101% and 97.7% | viability, T/C (compound 0.316 µM): 91.2% and 85.7% | viability, T/C (compound 1 µM): 84.5% and 68.1% | viability, T/C (compound 3.16 µM): 59.4% and 41.1% | viability, T/C (compound 10 µM): 25.1% and 10.8% | IC50 (curve of compound): 4340 nM and 2150 nM

NS(=O)(=O)OCC1CC(n2ccc3c(NC4CCc5ccccc54)ncnc32)CC1O (centres undefined) + NC1CCC(NC2CC2c2ccccc2)CC1
IC50 [1]: 101 nM | IC50 [2]: 78 nM | IC50 [3]: 71.8 nM | IC50 [4]: 68.9 nM | IC50 [5]: 83 nM | viability, T/C [6]: 78.2% | viability, T/C [7]: 60.1% | viability, T/C [8]: 56.1% | viability, T/C [9]: 36.6% | viability, T/C (second compound 0.1 µM, first compound 0.949 µM): 36.1% | viability, T/C (second compound 0.1 µM, first compound 3 µM): 31.7% | viability, T/C [10]: 75.3% | viability, T/C [11]: 60.5% | viability, T/C [12]: 47.2% | viability, T/C [13]: 39.4% | viability, T/C (second compound 0.316 µM, first compound 0.949 µM): 37.9% | viability, T/C (second compound 0.316 µM, first compound 3 µM): 31.4% | viability, T/C [14]: 83.5% | viability, T/C [15]: 62.3% | viability, T/C [16]: 46.8% | viability, T/C [17]: 35.1% | viability, T/C (second compound 1 µM, first compound 0.949 µM): 34.2% | viability, T/C (second compound 1 µM, first compound 3 µM): 30.1% | viability, T/C [18]: 70.9% | viability, T/C [19]: 57.9% | viability, T/C [20]: 48.4% | viability, T/C [21]: 35.9% | viability, T/C (second compound 3.16 µM, first compound 0.949 µM): 33.6% | viability, T/C (second compound 3.16 µM, first compound 3 µM): 28.8% | viability, T/C [22]: 77.3% | viability, T/C [23]: 63% | viability, T/C [24]: 47.6% | viability, T/C [25]: 37% | viability, T/C (second compound 10 µM, first compound 0.949 µM): 32.3% | viability, T/C (second compound 10 µM, first compound 3 µM): 24.4%

NS(=O)(=O)OCC1CC(n2ccc3c(NC4CCc5ccccc54)ncnc32)CC1O (centres undefined)
viability, T/C (compound 0.00949 µM): 84.9% and 85.4% | viability, T/C (compound 0.03 µM): 66.2% and 63.6% | viability, T/C (compound 0.0949 µM): 56.7% and 51.4% | viability, T/C (compound 0.3 µM): 43.3% and 49.8% | viability, T/C (compound 0.949 µM): 39% and 40.2% | viability, T/C (compound 3 µM): 32.8% and 39% | IC50 (curve of compound): 165 nM and 150 nM

Cn1ncnc1C1c2n[nH]c(=O)c3cc(F)cc(c23)NC1c1ccc(F)cc1 (centres undefined) + NC1CCC(NC2CC2c2ccccc2)CC1
IC50 [1]: > 100 nM | IC50 [2]: > 100 nM | IC50 [3]: > 100 nM | IC50 [4]: > 100 nM | IC50 [5]: > 100 nM | viability, T/C [26]: 99.3% | viability, T/C [27]: 107% | viability, T/C [28]: 96.6% | viability, T/C [29]: 98.3% | viability, T/C [30]: 91.7% | viability, T/C [31]: 92% | viability, T/C [32]: 98% | viability, T/C [33]: 114% | viability, T/C [34]: 97.3% | viability, T/C [35]: 103% | viability, T/C [36]: 104% | viability, T/C [37]: 82.8% | viability, T/C [38]: 107% | viability, T/C [39]: 102% | viability, T/C [40]: 102% | viability, T/C [41]: 98% | viability, T/C [42]: 95.8% | viability, T/C [43]: 87.9% | viability, T/C [44]: 115% | viability, T/C [45]: 117% | viability, T/C [46]: 104% | viability, T/C [47]: 100% | viability, T/C [48]: 88.1% | viability, T/C [49]: 104% | viability, T/C [50]: 104% | viability, T/C [51]: 130% | viability, T/C [52]: 114% | viability, T/C [53]: 95% | viability, T/C [54]: 100% | viability, T/C [55]: 89.7%

CC(C)CC(NC(=O)C(Cc1ccccc1)NC(=O)c1cnccn1)B(O)O (centres undefined) + NC1CC1c1ccc(-c2cccc(O)c2)cc1
IC50 [1]: 0.406 nM | IC50 [2]: 0.444 nM | IC50 [3]: 0.446 nM | IC50 [4]: 0.374 nM | IC50 [5]: < 0.316 nM | viability, T/C [26]: 63.8% | viability, T/C [27]: 0.34% | viability, T/C [28]: 0.19% | viability, T/C [29]: 0.14% | viability, T/C [30]: 0.14% | viability, T/C [31]: 0.24% | viability, T/C [32]: 70.6% | viability, T/C [33]: 0.44% | viability, T/C [34]: 0.17% | viability, T/C [35]: 0.12% | viability, T/C [36]: 0.15% | viability, T/C [37]: 0.21% | viability, T/C [38]: 71.2% | viability, T/C [39]: 0.42% | viability, T/C [40]: 0.22% | viability, T/C [41]: 0.31% | viability, T/C [42]: 0.13% | viability, T/C [43]: 0.22% | viability, T/C [44]: 58.4% | viability, T/C [45]: 0.35% | viability, T/C [46]: 0.22% | viability, T/C [47]: 0.16% | viability, T/C [48]: 0.14% | viability, T/C [49]: 0.24% | viability, T/C [50]: 41.6% | viability, T/C [51]: 0.43% | viability, T/C [52]: 0.48% | viability, T/C [53]: 0.28% | viability, T/C [54]: 0.26% | viability, T/C [55]: 0.34%

CC[C@@]1(O)C(=O)OCc2c1cc1n(c2=O)Cc2cc3c(CN(C)C)c(O)ccc3nc2-1 + NC1CCC(NC2CC2c2ccccc2)CC1
IC50 [1]: 1.61 nM | IC50 [2]: 2.15 nM | IC50 [3]: 2.14 nM | IC50 [4]: 2.18 nM | IC50 [5]: 2.02 nM | viability, T/C [26]: 105% | outcome [27]: inactive | viability, T/C [28]: 33.1% | viability, T/C [29]: 23.1% | viability, T/C [30]: 12.1% | viability, T/C [31]: 16.7% | viability, T/C [32]: 110% | viability, T/C [33]: 94.2% | viability, T/C [34]: 27.5% | viability, T/C [35]: 29.9% | viability, T/C [36]: 17.3% | viability, T/C [37]: 14.7% | viability, T/C [38]: 113% | viability, T/C [39]: 92.3% | viability, T/C [40]: 27.6% | viability, T/C [41]: 31.8% | viability, T/C [42]: 18.4% | viability, T/C [43]: 8.81% | viability, T/C [44]: 112% | viability, T/C [45]: 102% | viability, T/C [46]: 25% | viability, T/C [47]: 19.3% | viability, T/C [48]: 19% | viability, T/C [49]: 9.21% | viability, T/C [50]: 112% | viability, T/C [51]: 90.3% | viability, T/C [52]: 24.2% | viability, T/C [53]: 24.3% | viability, T/C [54]: 20% | viability, T/C [55]: 19.4%
